Entries after “also recorded” stand apart in the source; their conditions may differ.
Experiments:
Format in all cases: cell-based, human
[1] = tested on: HLA-A, HLA-B, HLA-C, PSMB8, PSMB9, PSMB10 mRNA; test: mRNA levels of MHC-I and immunoproteasome genes (RT-PCR, RNA-seq); details: MB135 cells, 50 uM, data not shown
Protocol: Myoblasts were transfected with either (final concentrations) 10 μM 2′,3′-cGAMP (Sigma Aldrich), 2 μg/mL poly(I:C) (Invitrogen), or 1 μg/mL 3′ppp-dsRNA RIG-I ligand (Dan Stetson Lab, UW) using Lipofectamine 2000 according to manufacturer's protocol, or were stimulated with 1000U IFNβ (PeproTech) or 200 ng/ml IFNγ (R+D Systems) by addition directly to cell culture medium. After 16 hours of immune stimulation, RNA was collected from cells using the NucleoSpin RNA Kit (Macherey-Nagel) according to manufacturer's instructions. RNA samples were quantified by nanodrop and 1 μg of RNA per sample was treated with DNase I Amplification Grade (Thermo Fisher), and then synthesized into cDNA using the Superscript IV First-Strand Synthesis System, including oligo dT primers (Invitrogen). qPCR was run in 384-well plates on an Applied Biosystems QuantStudio 6 Flex Real-Time PCR System (ABI) and analyzed in Microsoft Excel.
Total RNA was isolated using the NucleoSpin RNA kit (Machery-Nagel) or Direct-zol RNA Mini-Prep Kit (Zymo Research) according to manufacturer's instructions. RNA-seq libraries were prepared using the Illumina TruSeq RNA Sample Prep v2 Kit and sequenced using 50 bp paired-end sequencing on the Illumina NextSeq platform by the Fred Hutchinson Cancer Center Genomics Core.

[2] = tested on: MHC-I, PSMB8, PSMB9, and PSMB10; test: Immunoblot of IFNG-induced MHC-I and immunoproteasome protein in MB135 myoblasts treated with inhibitors; details: MB135 myoblasts without DUX4 induction, agent then IFNG 16 h; 4EGI-1 at 50 uM
Protocol: To test if mTOR inactivation was sufficient to block MHC-I and immunoproteasome protein levels in the absence of DUX4, parental MB135 myoblasts were treated with mTOR inhibitors everolimus or Torin2. Everolimus is a second-generation rapamycin analog with binding specificity for mTORC1. […] To further validate the role of 4EBP1 in blocking MHC-I and immunoproteasome protein expression, MB135 cells were treated with 4EGI-1, a small molecule that pharmacologically mimics 4EBP function and inhibits eIF4E.
(§1) Protein samples were harvested in RIPA buffer [150 mM NaCl, 1% NP-40, 0.5% Na-deocycholate, 1% SDS, 25 mM Tris-HCl pH7.4] supplemented with protease and phosphatase inhibitor tablets (Pierce), followed by sonication in Diagenode Bioruptor. Lysate was cleared by centrifugation at 16000×g and quantified using a Pierce BCA assay (Thermo Fisher Scientific). Samples were run on NuPAGE precast polyacrylamide gels (Invitrogen) and transferred to PVDF membrane. Membranes were blocked in PBS containing 0.1% Tween-20 and 5% non-fat dry milk before overnight incubation at 4° C. with primary antibodies (see resource table for a list of antibodies used in this study). Membranes were incubated with horseradish peroxidase-conjugated secondary antibodies for 1 hour at room temperature and SuperSignal chemiluminescent substrate (Thermo Scientific) was used for detection on film with a Mini-medical 90 processor. Membranes were stripped with Restore Western Blot Stripping Buffer (Pierce).

[3] = tested on: eIF2-alpha, RPS6, 4EBP1, eIF4E, eEF2; test: Immunoblot of translational regulators; details: parental MB135 myoblasts treated with mTOR inhibitor
Protocol: as §1

Compound: O=C(O)C(Cc1ccccc1[N+](=O)[O-])=NNc1nc(-c2ccc(Cl)c(Cl)c2)cs1 (mixture of isomers) [4EGI-1]
- effect on mRNA levels of MHC-I and iProteasome subunits [1]: had no effect on mRNA levels
- effect on IFNG-induced MHC-I and immunoproteasome protein in the absence of DUX4 [2]: suppressed IFNG-induced MHC-I and immunoproteasome subunits at the protein level; also recorded: suppressed IFN-induced MHC-I and iProteasome subunits at the protein level

Compound: Nc1ccc(-c2ccc3ncc4ccc(=O)n(-c5cccc(C(F)(F)F)c5)c4c3c2)cn1 [Torin2, reference compound]
- phosphorylation of 4EBP1 and eIF4E [3]: complete hypophosphorylation of 4EBP1 and reduced eIF4E phosphorylation
- phosphorylation of RPS6 [3]: blocked phosphorylation of RPS6
- effect on IFNG-induced MHC-I and immunoproteasome protein in the absence of DUX4 [2]: sufficient to post-transcriptionally repress IFNG-induced MHC-I, PSMB8, PSMB9, and PSMB10 protein expression

Compound: CO[C@H]1C[C@@H]2CC[C@@H](C)[C@@](O)(O2)C(=O)C(=O)N2CCCC[C@H]2C(=O)O[C@H]([C@H](C)C[C@@H]2CC[C@@H](OCCO)[C@H](OC)C2)CC(=O)[C@H](C)/C=C(\C)[C@@H](O)[C@@H](OC)C(=O)[C@H](C)C[C@H](C)/C=C/C=C/C=C/1C [everolimus, reference compound]
- phosphorylation of 4EBP1 and eIF4E [3]: 4EBP1 phosphorylation and eIF4E phosphorylation remained largely unaltered
- phosphorylation of RPS6 [3]: blocked S6K phosphorylation of RPS6
- effect on IFNG-induced MHC-I and immunoproteasome protein in the absence of DUX4 [2]: did not block MHC-I or immunoproteasome protein expression
